Assay results taken from patent US6476187B1, “Methods and reagents for discovering and using mammalian melanocortin receptor agonists and antagonists to modulate feeding behavior in animals” (Oregon Health & Sciences University, priority 1992, dated 2002).
Residues, ends and D or L forms follow the SMILES beside them.

Columns and labels:
[1] = biological target: T1, murine αMSH receptor (MC-1) (Mus musculus, UniProt Q01727); assay: intracellular cAMP accumulation in 293 cells transfected with mouse αMSH receptor; type: cell-based; conditions: 293 cells expressing murine αMSH receptor
T1 construct: excising the entire coding region of the αMSH^R (MC-1) cDNA insert comprising a 2.1 kb fragment; expressed in transfected cells; host or cells: human 293 cells, pcDNAI/neo, G418-selected
T1 sequence (Q01727 whole entry, the tested form may be a part): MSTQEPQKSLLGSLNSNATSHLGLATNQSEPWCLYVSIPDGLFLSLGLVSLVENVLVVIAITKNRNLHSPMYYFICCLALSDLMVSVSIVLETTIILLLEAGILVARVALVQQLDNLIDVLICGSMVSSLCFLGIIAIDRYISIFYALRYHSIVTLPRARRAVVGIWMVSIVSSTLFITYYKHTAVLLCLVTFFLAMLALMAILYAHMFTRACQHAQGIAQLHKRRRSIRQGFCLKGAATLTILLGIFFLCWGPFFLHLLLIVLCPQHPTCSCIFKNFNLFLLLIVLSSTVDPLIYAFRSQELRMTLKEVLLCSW
Procedure: After transfection, cells were cultured in DMEM media supplemented with 10% calf serum in a 3% CO2 atmosphere at 37° C. Selection was performed with neomycin (G418; GIBCO) at a concentration of 1000 μg/mL; selection was started 72 hr after transfection and continued for 3 weeks.
Following hormone treatment, the cells were washed twice with phosphate buffered saline and intracellular cAMP extracted by lysing the cells with 1 mL of 60% ethanol.

rat MC3-R = biological target: T2, rat MC3-R (Rattus norvegicus, UniProt P32244); assay: intracellular cAMP production in 293 cells expressing MC3-R; type: cell-based; conditions: 1 h at 37° C.
T2 construct: The entire coding region of the MC-3 receptor cDNA insert; expressed in transfected cells; host or cells: human 293 cells, pcDNA/neo I, G418-selected
T2 sequence (P32244 whole entry): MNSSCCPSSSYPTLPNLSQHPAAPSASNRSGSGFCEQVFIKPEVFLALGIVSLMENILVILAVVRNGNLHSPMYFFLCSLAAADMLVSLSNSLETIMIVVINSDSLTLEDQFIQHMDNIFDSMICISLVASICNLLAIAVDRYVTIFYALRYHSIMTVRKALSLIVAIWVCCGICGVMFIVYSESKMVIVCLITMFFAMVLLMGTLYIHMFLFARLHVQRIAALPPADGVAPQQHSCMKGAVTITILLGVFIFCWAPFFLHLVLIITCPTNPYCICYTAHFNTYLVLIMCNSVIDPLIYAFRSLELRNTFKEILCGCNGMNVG
Procedure: cAMP production assays as described above were also used to analyze expression of MC3-R in cells transfected with the expression vectors described herein as follows. […] Following hormone treatment, the cells were washed twice with phosphate buffered saline and intracellular cAMP extracted by lysing the cells with 1 mL of 60% ethanol.

human MC-4-R = human MC-4-R (Homo sapiens, UniProt P32245); conditions: Lu et al., 1994; cited from earlier work
Sequence of human MC-4-R (P32245 whole entry): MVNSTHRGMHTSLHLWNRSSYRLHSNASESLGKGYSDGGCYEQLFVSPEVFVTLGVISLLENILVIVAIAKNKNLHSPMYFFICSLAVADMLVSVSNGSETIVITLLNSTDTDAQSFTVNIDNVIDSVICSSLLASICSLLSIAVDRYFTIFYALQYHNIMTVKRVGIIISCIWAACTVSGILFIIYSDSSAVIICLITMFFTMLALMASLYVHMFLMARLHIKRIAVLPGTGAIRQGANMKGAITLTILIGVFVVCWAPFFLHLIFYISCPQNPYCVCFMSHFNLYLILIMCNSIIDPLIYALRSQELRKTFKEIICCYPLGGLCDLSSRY

rat MC-3 receptor = biological target: T3, rat MC-3 receptor (Rattus norvegicus, UniProt P32244); assay: competition of [Nle4,D-Phe7]α-MSH binding to rat MC-3 receptor; conditions: peptide about 60% pure; IC50 could not be determined
T3 construct: The entire coding region of the MC-3 receptor cDNA insert; expressed in transfected cells; host or cells: human 293 cells, pcDNA/neo I, G418-selected
T3 sequence (P32244 whole entry): as the sequence (P32244 whole entry) above
From the text: […]. In these experiments, murine agouti peptide was produced using a baculovirus system as described by Lu et al., (1994, Nature 371: 799-802), with the modification that the agouti peptide was purified from baculovirus supernatants by 0.6M NaCl step elution from an EconoS cation exchange column (BioRad). Agouti peptide used in these assays was approximately 60% pure.

CSCC[C@H](NC(=O)[C@H](CCCNC(=N)N)NC(=O)[C@H](Cc1ccc(O)cc1)NC(=O)[C@@H]1CCCN1C(=O)CNC(=O)[C@H](CCC(=O)O)NC(=O)[C@H](CC(=O)O)NC(=O)[C@H](CCCCN)NC(=O)[C@H](CCCCN)NC(=O)[C@H](CCC(=O)O)NC(=O)[C@H](C)N)C(=O)N[C@@H](CCC(=O)O)C(=O)N[C@@H](Cc1c[nH]cn1)C(=O)N[C@@H](Cc1ccccc1)C(=O)N[C@@H](CCCNC(=N)N)C(=O)N[C@@H](Cc1c[nH]c2ccccc12)C(=O)NCC(=O)N[C@@H](CO)C(=O)N1CCC[C@H]1C(=O)N1CCC[C@H]1C(=O)N[C@@H](CCCCN)C(=O)N[C@@H](CC(=O)O)C(=O)O [βMSH]
EC50 (intracellular cAMP) ([1]; 45 min at 37° C.): comparable to αMSH

CSCC[C@H](NC(=O)[C@@H](NC(=O)[C@@H](N)Cc1ccc(O)cc1)C(C)C)C(=O)NCC(=O)N[C@@H](Cc1c[nH]cn1)C(=O)N[C@@H](Cc1ccccc1)C(=O)N[C@@H](CCCNC(=N)N)C(=O)N[C@@H](Cc1c[nH]c2ccccc12)C(=O)N[C@@H](CC(=O)O)C(=O)N[C@@H](CCCNC(=N)N)C(=O)N[C@@H](Cc1ccccc1)C(=O)NCC(=O)N[C@@H](CCCNC(=N)N)C(=O)N[C@@H](CCCNC(=N)N)C(=O)N[C@@H](CC(N)=O)C(=O)NCC(=O)N[C@@H](CO)C(=O)N[C@@H](CO)C(=O)N[C@@H](CO)C(=O)N[C@@H](CO)C(=O)NCC(=O)N[C@H](C(=O)NCC(=O)NCC(=O)N[C@@H](C)C(=O)N[C@@H](C)C(=O)N[C@@H](CCC(N)=O)C(=O)O)C(C)C [γ3-MSH] (H-YVMGHFRWDRFGRRNGSSSSGVGGAAQ-OH; N-terminus and C-terminus assumed)
EC50 (rat MC3-R): 6 nM

CSCC[C@H](NC(=O)[C@@H](NC(=O)[C@@H](N)Cc1ccc(O)cc1)C(C)C)C(=O)NCC(=O)N[C@@H](Cc1c[nH]cn1)C(=O)N[C@@H](Cc1ccccc1)C(=O)N[C@@H](CCCNC(=N)N)C(=O)N[C@@H](Cc1c[nH]c2ccccc12)C(=O)N[C@@H](CC(=O)O)C(=O)N[C@@H](CCCNC(=N)N)C(=O)N[C@@H](Cc1ccccc1)C(N)=O [γ-MSH, γ-melanocyte stimulating hormone]
activity in elevating intracellular cAMP [1]: little or no activity

B1: agouti peptide: murine agouti peptide produced using a baculovirus system, approximately 60% pure (protein)
chain: HLALEETLGDDRSLRSNSSMNSLDFSSVSIVALNKKSKKISRKEAEKRKRSSKKKASMKKVARPPPPSPCVATRDSCKPPAPACCDPCASCQCRFFGSACTCRVLNPNC
competition of αMSH activation (human MC-4-R): Specific competition | competition of [Nle4,D-Phe7]α-MSH binding (rat MC-3 receptor): Specific competition
